In patent publication US20240116985A1, “STAPLED PEPTIDES AND METHODS THEREOF” (priority 2020, published 2024):

Target: T1, full-length beta-Catenin (Uniprot ID P35222) (Homo sapiens, UniProt P35222)
T1 construct: 10 nM full-length beta-Catenin (Uniprot ID P35222)
T1 sequence (P35222 1-781): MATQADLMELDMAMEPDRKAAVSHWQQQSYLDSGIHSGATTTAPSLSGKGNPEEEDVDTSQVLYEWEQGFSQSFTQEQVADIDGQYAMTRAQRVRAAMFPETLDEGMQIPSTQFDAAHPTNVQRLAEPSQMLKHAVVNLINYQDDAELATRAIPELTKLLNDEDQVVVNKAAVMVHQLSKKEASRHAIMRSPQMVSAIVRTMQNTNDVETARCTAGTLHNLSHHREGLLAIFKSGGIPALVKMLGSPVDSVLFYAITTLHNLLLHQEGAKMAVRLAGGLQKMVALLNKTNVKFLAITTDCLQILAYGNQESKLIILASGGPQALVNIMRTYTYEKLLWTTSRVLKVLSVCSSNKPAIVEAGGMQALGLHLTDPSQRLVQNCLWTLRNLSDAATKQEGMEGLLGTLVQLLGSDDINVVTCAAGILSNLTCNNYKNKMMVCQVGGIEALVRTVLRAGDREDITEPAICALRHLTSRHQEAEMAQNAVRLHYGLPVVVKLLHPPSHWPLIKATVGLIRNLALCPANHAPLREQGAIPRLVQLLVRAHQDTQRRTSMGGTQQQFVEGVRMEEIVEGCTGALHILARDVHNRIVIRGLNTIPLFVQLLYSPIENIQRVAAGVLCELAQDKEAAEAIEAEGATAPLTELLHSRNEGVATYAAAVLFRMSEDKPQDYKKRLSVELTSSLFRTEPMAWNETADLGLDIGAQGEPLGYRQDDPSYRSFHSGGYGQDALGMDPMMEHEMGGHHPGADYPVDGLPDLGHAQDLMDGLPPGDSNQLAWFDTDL
Test: Fluorescence polarization IC50 (beta-catenin / 5FAM-TCF4 10-53 competition)
Assay type: binding
Details: fluorescence polarization; read-out: beta-Catenin FP IC50

Row | SMILES | IC50 [nM]
1 | CC(=O)N1CCC[C@]12CC=CCCCC1(CCCC=CCCCOC(=O)N3CC[C@@](C(=O)N[C@@H](Cc4cccnc4)C(=O)N[C@@H](Cc4csc5ccccc45)C(=O)N[C@@H](CCO)C(N)=O)(C3)NC(=O)[C@H](CC(N)=O)NC(=O)[C@H](Cc3ccccc3)NC(=O)[C@H](C)NC(=O)[C@H](CCCCNC(C)C)NC(=O)[C@H](CCC(N)=O)NC(=O)[C@H](CC(=O)O)NC1=O)NC(=O)[C@H](CC1CCCCC1)NC(=O)[C@H](CC(N)=O)NC2=O (stereo partly drawn) [I-1927, Ac-PL3-Asn-Cha-B5-Asp-Gln-iPrLys-Ala-Phe-Asn-PyrS2-3PyrA-BztA-Hse-NH2] | 5140
2 | CC(=O)N1CCC[C@]12CC=CCCCC1(CCCC=CCCCOC(=O)N3CC[C@@](C(=O)N[C@@H](Cc4ccccc4Cl)C(=O)N[C@@H](Cc4csc5ccccc45)C(=O)N[C@@H](CCC(N)=O)C(=O)N[C@H](CO)CC(C)C)(C3)NC(=O)[C@H](CC(C)C)NC(=O)[C@H](Cc3ccccc3)NC(=O)[C@H](C)NC(=O)[C@H](C)NC(=O)[C@H](Cc3cccc(C(=O)O)c3)NC(=O)[C@H](CC(=O)O)NC1=O)NC(=O)[C@H](CC(C)(C)C)NC(=O)[C@H](CC(=O)O)NC2=O (stereo partly drawn) [I-1676, Ac-PL3-Asp-Npg-B5-Asp-3COOHF-Ala-Ala-Phe-Leu-PyrS2-2C1F-BztA-Gln-Leuo1] | 91
3 | CC(=O)N1CCC[C@]12CC=CCCCC1(CCCC=CCCCOC(=O)N3CC[C@@](C(=O)N[C@@H](Cc4ccsc4)C(=O)N[C@@H](Cc4csc5ccccc45)C(=O)N[C@@H](CCC(N)=O)C(N)=O)(C3)NC(=O)[C@H](CC(N)=O)NC(=O)[C@H](Cc3ccc(O)cc3)NC(=O)[C@H](C)NC(=O)[C@H](C)NC(=O)[C@H]([C@@H](C)O)NC(=O)[C@H](CC(N)=O)NC1=O)NC(=O)[C@H](CC(C)(C)C)NC(=O)[C@H](CC(=O)O)NC2=O (stereo partly drawn) [I-2015, Ac-PL3-Asp-Npg-B5-Asn-Thr-Ala-Ala-Tyr-Asn-PyrS2-3Thi-BztA-Gln-NH2] | 522
4 | CC(=O)N1CCC[C@]12CC=CCCCC1(CCCC=CCCCOC(=O)N3CC[C@@](C(=O)N[C@@H](Cc4ccsc4)C(=O)N[C@@H](Cc4csc5ccccc45)C(=O)N[C@@H](CCC(N)=O)C(N)=O)(C3)NC(=O)[C@H](CC(C)C)NC(=O)C(Cc3cccc(C(=O)Oc4ccccc4)c3)NC(=O)[C@H](C)NC(=O)[C@H](C)NC(=O)[C@H](CN(CC(=O)O)CC(F)(F)F)NC(=O)[C@H](CC(=O)O)NC1=O)NC(=O)[C@H](CC(C)(C)C)NC(=O)[C@H](CC(=O)O)NC2=O (single isomer, unassigned) [I-2150, Ac-PL3-Asp-Npg-B5-Asp-TfeGA-Ala-Ala-3CO2PhF-Leu-PyrS2-3Thi-BztA-Gln-NH2] | 647
5 | CC(=O)N1CCC[C@]12CC=CCCCC1(CCCC=CCCCOC(=O)N3CC[C@@](C(=O)N[C@@H](Cc4ccsc4)C(=O)N[C@@H](Cc4csc5ccccc45)C(=O)N[C@@H](CCC(N)=O)C(N)=O)(C3)NC(=O)[C@H](CC(N)=O)NC(=O)[C@H](Cc3ccccc3)NC(=O)[C@H](C)NC(=O)[C@H](C)NC(=O)[C@H](CC(=O)O)NC(=O)[C@H](CC(C)C)NC1=O)NC(=O)[C@H](CC(C)(C)C)NC(=O)[C@H](CC(=O)O)NC2=O (stereo partly drawn) [I-1212, Ac-PL3-Asp-Npg-B5-Leu-Asp-Ala-Ala-Phe-Asn-PyrS2-3Thi-BztA-Gln-NH2] | 8660
6 | CC(=O)N1CCC[C@]12CC=CCCCC1(CCCC=CCCCOC(=O)N3CC[C@@](C(=O)N[C@@H](Cc4ccccc4)C(=O)N[C@@H](Cc4csc5ccccc45)C(=O)N[C@@H](CCO)C(N)=O)(C3)NC(=O)[C@H](CC(N)=O)NC(=O)[C@H](Cc3cccc(C(N)=O)c3)NC(=O)[C@H](C)NC(=O)[C@H](CCCCNC(C)C)NC(=O)[C@H](CCC(N)=O)NC(=O)[C@H](CC(=O)O)NC1=O)NC(=O)[C@H](CC1CCCCC1)NC(=O)[C@H](CC(N)=O)NC2=O (stereo partly drawn) [I-1925, Ac-PL3-Asn-Cha-B5-Asp-Gln-iPrLys-Ala-3cbmf-Asn-PyrS2-Phe-BztA-Hse-NH2] | 475
7 | CC(=O)N1CCC[C@]12CC=CCCCC1(CCCC=CCCCOC(=O)N3CC[C@@](C(=O)N[C@@H](Cc4ccsc4)C(=O)N[C@@H](Cc4c[nH]c5cccc(F)c45)C(=O)N[C@@H](CCC(N)=O)C(N)=O)(C3)NC(=O)[C@H](CC(C)C)NC(=O)[C@H](Cc3ccccc3)NC(=O)[C@H](C)NC(=O)[C@H](C)NC(=O)[C@H](CC(=O)O)NC(=O)[C@H](CC(=O)O)NC1=O)NC(=O)[C@H](CC(C)(C)C)NC(=O)[C@H](CC(=O)O)NC2=O (stereo partly drawn) [I-2179, Ac-PL3-Asp-Npg-B5-Asp-Asp-Ala-Ala-Phe-Leu-PyrS2-3Thi-4FW-Gln-NH2] | 67
8 | CC(=O)N1CCC[C@]12CC=CCCCC1(CCCC=CCCCOC(=O)N3CC[C@@](C(=O)N[C@@H](Cc4ccsc4)C(=O)N[C@@H](Cc4csc5ccccc45)C(=O)N[C@@H](Cc4ccccc4)C(N)=O)(C3)NC(=O)[C@H](CC(N)=O)NC(=O)[C@H](Cc3ccccc3)NC(=O)[C@H](C)NC(=O)[C@H](C)NC(=O)[C@H]([C@@H](C)O)NC(=O)[C@H](CC(N)=O)NC1=O)NC(=O)[C@H](CC(C)(C)C)NC(=O)[C@H](CC(=O)O)NC2=O (stereo partly drawn) [I-1744, Ac-PL3-Asp-Npg-B5-Asn-Thr-Ala-Ala-Phe-Asn-PyrS2-3Thi-BztA-Phe-NH2] | 363
9 | CC(=O)N1CCC[C@]12CC=CCCCC1(CCCC=CCCCOC(=O)N3CC[C@@](C(=O)N[C@@H](Cc4ccsc4)C(=O)N[C@@H](Cc4csc5ccccc45)C(=O)N[C@@H](CCC(N)=O)C(N)=O)(C3)NC(=O)[C@H](CC(N)=O)NC(=O)[C@H](Cc3ccccc3)NC(=O)[C@H](C)NC(=O)[C@H](C)NC(=O)[C@H](Cc3cccc(C(=O)O)c3)NC(=O)[C@H](CC(N)=O)NC1=O)NC(=O)[C@H](CC(C)(C)C)NC(=O)[C@H](CC(=O)O)NC2=O (stereo partly drawn) [I-2335, Ac-PL3-Asp-Npg-B5-Asn-3COOHF-Ala-Ala-Phe-Asn-PyrS2-3Thi-BztA-Gln-NH2] | 7
10 | CC(=O)N1CCC[C@]12CC=CCCCC1(CCCC=CCCCOC(=O)N3CC[C@@](C(=O)N[C@@H](Cc4ccsc4)C(=O)N[C@@H](Cc4csc5ccccc45)C(=O)N[C@@H](CCC(N)=O)C(N)=O)(C3)NC(=O)[C@H](CC(C)C)NC(=O)[C@H](Cc3ccccc3)NC(=O)[C@H](C)NC(=O)[C@H](C)NC(=O)[C@H](CCN(CC(=O)O)CC(=O)O)NC(=O)[C@H](CC(=O)O)NC1=O)NC(=O)[C@H](CC(C)(C)C)NC(=O)[C@H](CC(=O)O)NC2=O (stereo partly drawn) [I-1836, Ac-PL3-Asp-Npg-B5-Asp-[CH2CO2H]GAbu-Ala-Ala-Phe-Leu-PyrS2-3Thi-BztA-Gln-NH2] | 24
11 | CC(=O)N1CCC[C@]12CC=CCCCC1(CCCC=CCCCOC(=O)N3CC[C@@](C(=O)N[C@@H](Cc4ccccc4)C(=O)N[C@@H](Cc4csc5ccccc45)C(=O)N[C@H](C(N)=O)[C@@H](C)O)(C3)NC(=O)[C@H](CC(N)=O)NC(=O)[C@H](Cc3ccccc3)NC(=O)[C@H](C)NC(=O)[C@H](CCCCNC(C)C)NC(=O)[C@H](CCC(N)=O)NC(=O)[C@H](CC(=O)O)NC1=O)NC(=O)[C@H](CC1CCCCC1)NC(=O)[C@H](CC(N)=O)NC2=O (stereo partly drawn) [I-2112, Ac-PL3-Asn-Cha-B5-Asp-Gln-iPrLys-Ala-Phe-Asn-PyrS2-Phe-BztA-Thr-NH2] | 501
12 | CC(=O)N1CCC[C@]12CC=CCCCC1(CCCC=CCCCOC(=O)N3CC[C@@](C(=O)N[C@@H](Cc4ccsc4)C(=O)N[C@@H](Cc4csc5ccccc45)C(=O)N[C@@H](CC(C)(C)C)C(N)=O)(C3)NC(=O)[C@H](CC(C)C)NC(=O)[C@H](Cc3ccccc3)NC(=O)[C@H](C)NC(=O)[C@H](CC(=O)N(C)C)NC(=O)[C@H](Cc3cccc(C(=O)O)c3)NC(=O)[C@H](CC(=O)O)NC1=O)NC(=O)[C@H](CC(C)(C)C)NC(=O)[C@H](CC(=O)O)NC2=O (stereo partly drawn) [I-2196, Ac-PL3-Asp-Npg-B5-Asp-3COOHF-Me2Asn-Ala-Phe-Leu-PyrS2-3Thi-BztA-Npg-NH2] | 41
13 | CC(=O)N1CCC[C@]12CC=CCCCC1(CCCC=CCCCOC(=O)N3CC[C@@](C(=O)N[C@@H](Cc4ccsc4)C(=O)N[C@@H](Cc4ccc(F)c(F)c4)C(=O)N[C@@H](CCC(N)=O)C(N)=O)(C3)NC(=O)[C@H](CC(C)C)NC(=O)[C@H](Cc3ccccc3)NC(=O)[C@H](C)NC(=O)[C@H](C)NC(=O)[C@H](CC(=O)O)NC(=O)[C@H](CC(=O)O)NC1=O)NC(=O)[C@H](CC(C)(C)C)NC(=O)[C@H](CC(=O)O)NC2=O (stereo partly drawn) [I-1427, Ac-PL3-Asp-Npg-B5-Asp-Asp-Ala-Ala-Phe-Leu-PyrS2-3Thi-34FF-Gln-NH2] | 33
14 | CC(=O)N1CCC[C@]12CCCCCCC1(CCCCCCOC(=O)N3CC(C(=O)N[C@@H](Cc4ccsc4)C(=O)N[C@@H](Cc4csc5ccccc45)C(=O)N[C@@H](CCC(N)=O)C(N)=O)(C3)NC(=O)[C@H](CC(C)C)NC(=O)[C@H](Cc3ccccc3)NC(=O)[C@H](C)NC(=O)[C@H](C)NC(=O)[C@H](CC(=O)O)NC(=O)[C@H](CC(=O)O)NC1=O)NC(=O)[C@H](CC(C)(C)C)NC(=O)[C@H](CC(=O)O)NC2=O (stereo partly drawn) [I-1832, Ac-PL3-Asp-Npg-B5-Asp-Asp-Ala-Ala-Phe-Leu-Az-3Thi-BztA-Gln-NH2] | 1110
